Assay results published in BindingDB's records for patent US20250188037 (Takeda Pharmaceutical, 2025).

What was measured:
[1] = biological target: Somatostatin receptor type 4 (Homo sapiens, UniProt P31391); assay: SSTR4 I-125 Somatostatin Competition Binding Assay for Selectivity Versus SSTR4
Method: Then 1 μg of SSTR4 membranes in 50 μL assay buffer are added per well. The Plate is incubated for 60 minutes at room temperature. […] The contents of the assay plate are transferred to filters with a TomTech harvester and washed 5 times with 20 mM HEPES, 100 mM NaCl. […] The scintillator sheets are melted to filters using a heat block. The filters are then read in a MicroBeta scintillation counter. Binding Ki curves are generated using Activity Base for Screening Data Management and the results are reported as pIC50.

[2] = biological target: Somatostatin receptor type 1 (Homo sapiens, UniProt P30872); assay: SSTR1 I-125 Somatostatin Competition Binding Assay for Selectivity Versus SSTR1
Sequence of Somatostatin receptor type 1 (P30872 whole entry): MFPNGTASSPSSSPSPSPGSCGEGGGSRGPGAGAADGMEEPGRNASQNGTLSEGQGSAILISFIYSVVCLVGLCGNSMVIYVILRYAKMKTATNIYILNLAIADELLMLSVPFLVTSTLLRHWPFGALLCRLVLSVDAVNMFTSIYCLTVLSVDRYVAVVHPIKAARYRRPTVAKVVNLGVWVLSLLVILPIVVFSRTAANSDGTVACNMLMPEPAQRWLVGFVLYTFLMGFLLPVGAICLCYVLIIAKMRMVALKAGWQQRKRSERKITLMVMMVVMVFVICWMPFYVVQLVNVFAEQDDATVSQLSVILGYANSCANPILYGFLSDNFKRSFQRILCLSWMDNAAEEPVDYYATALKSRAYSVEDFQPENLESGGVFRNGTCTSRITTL
Method: Then 10 μg of SSTR1 membranes in 50 μL assay buffer are added per well. The plate is incubated for 60 minutes at room temperature. […] The contents of the assay plate are transferred to filters with a TomTech harvester and washed 5 times with 20 mM HEPES, 100 mM NaCl. […] The scintillator sheets are melted to the filters using a heat block. The filters are then read in a MicroBeta scintillation counter. Binding Ki curves are generated using Activity Base for Screening Data Management and the results are reported as pIC50.

Sequence of Somatostatin receptor type 4 (P31391 whole entry): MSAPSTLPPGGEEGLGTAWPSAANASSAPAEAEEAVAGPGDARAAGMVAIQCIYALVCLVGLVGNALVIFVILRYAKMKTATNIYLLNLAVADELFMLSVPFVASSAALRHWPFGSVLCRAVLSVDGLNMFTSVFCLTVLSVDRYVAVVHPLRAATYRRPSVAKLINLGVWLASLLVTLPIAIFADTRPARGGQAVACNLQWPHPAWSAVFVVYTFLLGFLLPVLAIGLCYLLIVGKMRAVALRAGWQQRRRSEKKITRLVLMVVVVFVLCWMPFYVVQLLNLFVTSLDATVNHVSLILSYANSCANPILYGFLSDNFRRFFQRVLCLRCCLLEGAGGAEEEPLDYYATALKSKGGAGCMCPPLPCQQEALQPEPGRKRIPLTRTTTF

IC50 [1]: 87.1 nM
IC50 [2]: > 50.1 µM
SMILES: O=C(N[C@H]1CCNC[C@@H]1F)C1(Cc2cccc(F)c2)CC1 [US20250188037, Example 44]
